What was measured:
[1] = biological target: T1, RPE65 (Bos taurus, UniProt Q28175); test: Retinoid isomerase activity assay (11-cis-retinol production in RPE microsomes); format: biochemical, Bovine; details: primary amine; decline in 11-cis-retinol production in RPE microsomes; read-out: Inhibition of RPE65
T1 construct: from tissue; host or cells: bovine retinal pigment epithelium (RPE) microsomes
Method: (§1) Bovine RPE microsomes were isolated from RPE homogenates by differential centrifugation as previously described. The resulting microsomal precipitate was resuspended in 10 mM Bis-Tris propane/HCl buffer, pH 7.4, to achieve a total protein concentration of […]. Then the mixture was placed in a quartz cuvette and irradiated for 6 min at 4° C. with a ChromatoUVE transilluminator (model TM-15; UVP) to eliminate residual retinoids. After irradiation, DTT was added to the RPE microsomal mixture to achieve a final concentration of 5 mM.
[…] The resulting mixture was pre incubated at room temperature for 5 min. Then 1 μl of all-trans-retinol (in DMF, final concentration 20 μM) was added. The resulting mixture was incubated at 37° C. for 15 min to 2 h. The reaction was quenched by adding 300 μl of methanol, and products were extracted with 300 μl of hexanes. Production of 11-cis-retinol was quantified by normal phase HPLC with 10% (v/v) ethyl acetate in hexanes as the eluent at a flow rate of 1.4 ml·min^−1. Retinoids were detected by monitoring their absorbance at 325 nm and quantified based on a standard curve representing the relationship between the amount of 11-cis-retinol and the area under the corresponding chromatographic peak.
Primary amines of compounds derived from the aldehydes were subsequently tested for their ability to inhibit the RPE65-dependent retinoid isomerization reaction in dose- and time dependent reactions as exemplified by QEB-B-001 (FIG. 3B). Amines were incubated with RPE microsomes in the presence of all-trans-retinol and the 11-cis-retinoid binding protein, CRALBP.
Progress of the enzymatic reaction was monitored by HPLC separation of retinoids and quantification of 11-cis-retinol with a decrease of 11-cis-retinol production reflecting inhibition of RPE65 by a tested amine. […] This moderate inhibition could be enhanced by shortening the polyene chain length (TEA amines) or diminished by introducing an extra positive charge into the tested compounds (QEA-G amines).

[2] = biological target: T2, LRAT (Bos taurus, UniProt Q9BGL2); test: LRAT activity assay with bovine RPE microsomes (esterification of the corresponding primary alcohols); format: biochemical; details: percentage of the corresponding primary alcohol esterified by LRAT in 1 h at 37° C; 10 μM; RPE microsomes
T2 construct: incubated with RPF microsomes that served as a source of LRAT enzymatic activity; from tissue; host or cells: bovine retinal pigment epithelium (RPE) microsomes
T2 sequence (Q9BGL2 1-230): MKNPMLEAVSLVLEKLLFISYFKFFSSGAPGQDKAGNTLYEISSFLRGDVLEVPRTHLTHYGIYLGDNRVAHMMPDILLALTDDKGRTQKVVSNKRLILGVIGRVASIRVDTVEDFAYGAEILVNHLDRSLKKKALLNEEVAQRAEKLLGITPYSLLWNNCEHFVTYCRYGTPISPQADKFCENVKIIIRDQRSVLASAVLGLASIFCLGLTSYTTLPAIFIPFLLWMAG
Method: as §1
Two μl of a synthesized primary alcohol or amine dissolved in DMF (final concentration 10 μM) and 2 μl of 1,2-diheptanoyl-sn-glicerol-3-phosphocholine (water, final concentration 1 mM) were added to 200 μl of 10 mM Bis-Tris propane/HCl buffer, pH 7.4, containing 150 μg of RPE microsomes and 1% (v/w) BSA. The resulting mixture was incubated at 37° C. for 1 h. The reaction was quenched by adding 300 μl of methanol. Most reaction products were extracted with 300 μl of hexanes, except for products from the QEA-C-006 and QEA-G groups which were extracted by adding 300 μl of ethyl acetate and 300 μl of water.
Reaction products were separated and quantified by normal phase HPLC (Agilent Sil 5 μm, 4.6 mm×250 mm) in stepwise gradient of ethyl acetate in hexanes (0-15 min, 10%; 20-30 min, 30%) at a flow rate of 1.4 ml·min^−1.
The properties of retinoid derivatives were examined by two standard enzymatic tests, the […] and retinoid isomerization assays. To identify substrates of LRAT, aldehydes were reduced by sodium borohydrate to their corresponding primary alcohols that then were directly used in the esterification assay (FIG. 2B).
The alcohols were incubated with RPF microsomes that served as a source of LRAT enzymatic activity. Products of the enzymatic reaction as well as the remaining substrates were extracted with organic solvents and analyzed by HPLC. The ratio between a substrate and its esterified form was used to measure enzymatic activity efficiency, based on equivalent UV absorption of the substrate and product at their specific UV maxim wavelengths. Compounds classified as ‘good’ LRAT substrates converted at least 50% of their available alcohol substrates into corresponding esters under these experimental conditions, whereas marginal LRAT substrates were converted at less than 5%. Alcohols with a 5-50% conversion ratio were classified as weak substrates. Among 35 tested compounds, 23 were categorized as good and 9 as weak substrates; 3 compounds were not esterified by LRAT (Table 1 and FIG. 2C). […] Moreover, breaking double bond conjugation along the polyene chain or deletion of a C9 and/or a C13 methyl group also was allowed.

T1 sequence (Q28175 whole entry): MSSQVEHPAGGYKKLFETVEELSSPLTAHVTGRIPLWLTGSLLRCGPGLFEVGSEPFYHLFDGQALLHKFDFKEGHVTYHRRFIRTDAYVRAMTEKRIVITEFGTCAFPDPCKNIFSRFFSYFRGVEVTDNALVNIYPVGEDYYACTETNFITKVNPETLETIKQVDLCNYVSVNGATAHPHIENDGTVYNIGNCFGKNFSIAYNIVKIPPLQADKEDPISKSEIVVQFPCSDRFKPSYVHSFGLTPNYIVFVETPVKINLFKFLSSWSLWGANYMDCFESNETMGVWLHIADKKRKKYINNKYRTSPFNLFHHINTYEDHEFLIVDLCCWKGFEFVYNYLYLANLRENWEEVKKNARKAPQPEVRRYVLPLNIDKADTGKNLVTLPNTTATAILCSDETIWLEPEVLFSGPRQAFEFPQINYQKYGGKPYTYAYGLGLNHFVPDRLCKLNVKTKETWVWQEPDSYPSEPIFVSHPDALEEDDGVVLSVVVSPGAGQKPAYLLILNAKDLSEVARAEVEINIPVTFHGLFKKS

| IC50 [1] | LRAT Substrate [2] | SMILES |
| --- | --- | --- |
| < 10 µM | 100% | CC1=C(/C=C/C(C)=C/C=C/C(C)=C/C=C/CN)C(C)(C)CCC1 [PEA-A-001-NH2] |
| < 10 µM | 90% | CC1=C(/C=C/C(C)=C/C=C/C(C)=C/C=C/CN)C(C)(C)CCC1O (stereo not drawn) [PEA-A-002-NH2] |
| < 10 µM | 90% | CC1=C(/C=C/C(C)=C/C=C/C(C)=C/C=C/CN)C(C)(C)CC(O)C1 (stereo not drawn) [PEA-A-003-NH2] |
| < 10 µM | 100% | CC1=C(/C=C/C(C)=C/C=C/C(C)=C/CN)C(C)(C)CCC1O (stereo not drawn) [QEA-A-002-NH2] |
| < 10 µM | 100% | CC1=C(/C=C/C(C)=C/C=C/C(C)=C/CN)C(C)(C)CC(O)C1 (stereo not drawn) [QEA-A-003-NH2] |
| < 10 µM | 100% | CC1=C(/C=C/C(C)=C/C=C/C=C/CN)C(C)(C)CCC1 [QEA-A-004-NH2] |
| – | 0% | CC1=C(/C=C/C(=C/C=C/C(=C/CN)C(C)(C)C)C(C)(C)C)C(C)(C)CCC1 [QEA-B-004-NH2] |
| – | 0% | CC(C)(C)C(=C\CN)/C=C/C=C(/C=C/C1=CCCCC1)C(C)(C)C [QEA-B-005-NH2] |
| > 200 µM | 15% | CC(/C=C/C=C(/C=C/c1ccc2c(c1)CCCC2)C(C)(C)C)=C\CN [QEA-C-002-NH2] |
| > 200 µM | 100% | CC(/C=C/C=C(/C=C/c1ccc(Cl)cc1)c1ccccc1)=C\CN [QEA-C-004-NH2] |
| > 200 µM | 100% | COc1ccc(C(=C\C=C\C(C)=C\CN)/C=C/c2ccc([N+](=O)[O-])cc2)cc1 [QEA-C-005-NH2] |
| > 200 µM | 100% | CC(/C=C/C=C1/C=C(C2=CCCCC2)CCC1)=C\CN [QEA-D-001-NH2] |
| > 200 µM | 100% | CC(/C=C/C=C1/C=C(C2=COCCC2)CCC1)=C\CN [QEA-D-002-NH2] |
| > 200 µM | 100% | CC(/C=C/C=C(/C=C/C1=CCCCC1)c1ccccc1)=C\CN [QEA-E-001-NH2] |
| 10 to 100 µM | 100% | CC(/C=C/C=C1/C=C(c2cccnc2)CCC1)=C\CN [QEA-G-001-NH2] |
| 10 to 100 µM | 100% | COc1ccc(C(=C\C=C\C(C)=C\CN)/C=C/c2cccnc2)cc1 [QEA-G-002-NH2] |
| < 10 µM | 100% | CC1=C(/C=C/C(C)=C/C=C/CN)C(C)(C)CCC1 [TEA-A-001-NH2] |
| < 10 µM | 100% | CC1=C(/C=C/C(C)=C/C=C/CN)C(C)(C)CC=C1 [TEA-A-002-NH2] |
| < 10 µM | 90% | CC1=C(/C=C/C(C)=C/C=C/CN)C(C)(C)CC(O)C1 (stereo not drawn) [TEA-A-003-NH2] |
| < 10 µM | 90% | CC1=C(/C=C/C(C)=C/C=C/CN)C(C)(C)CCC1O (stereo not drawn) [TEA-A-004-NH2] |
| > 200 µM | 100% | CC1=C(/C=C/C(=C/C=C/CN)C(C)(C)C)C(C)(C)CCC1 [TEA-B-001-NH2] |
| > 200 µM | 20% | CC1=C(/C=C/C(=C/C=C/CN)C(C)(C)C)CCCC1 [TEA-B-003-NH2] |
| > 200 µM | 30% | NC/C=C/C=C(/C=C/C1=CCCCC1)c1ccccc1 [TEA-B-004-NH2] |
| – | 0% | CC(C)(C)C(=C\C=C\CN)/C=C/c1ccc2c(c1)CCCC2 [TEA-C-001-NH2] |
